# Experimental data: PubChem BioAssay (NCI)
#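 Cells were grown in 96-well plates and exposed to each compound for 48 hours at five concentrations; endpoints were interpolated linearly between bracketing concentrations, or set to the highest concentration if not reached. TGI marks complete inhibition of growth.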
# Columns and labels:
# Assay in all cases: NCI anticancer screen, dose series, 48 h
# 786-0 renal = tested on: 786-0 renal
# A498 renal = tested on: A498 renal
# A549 NSCLC = tested on: A549 NSCLC
# ACHN renal = tested on: ACHN renal
# BT-549 breast = tested on: BT-549 breast
# CAKI-1 renal = tested on: CAKI-1 renal
# CCRF-CEM leukemia = tested on: CCRF-CEM leukemia
# COLO 205 colon = tested on: COLO 205 colon
# DU-145 prostate = tested on: DU-145 prostate
# EKVX NSCLC = tested on: EKVX NSCLC
# HCC-2998 colon = tested on: HCC-2998 colon
# HCT-116 colon = tested on: HCT-116 colon
# HCT-15 colon = tested on: HCT-15 colon
# HL-60(TB) leukemia = tested on: HL-60(TB) leukemia
# HOP-62 NSCLC = tested on: HOP-62 NSCLC
# HOP-92 NSCLC = tested on: HOP-92 NSCLC
# HS 578T breast = tested on: HS 578T breast
# HT29 colon = tested on: HT29 colon
# IGROV1 ovarian = tested on: IGROV1 ovarian
# K-562 leukemia = tested on: K-562 leukemia
# KM12 colon = tested on: KM12 colon
# LOX IMVI melanoma = tested on: LOX IMVI melanoma
# M14 melanoma = tested on: M14 melanoma
# MALME-3M melanoma = tested on: MALME-3M melanoma
# MCF7 breast = tested on: MCF7 breast
# MDA-MB-231 breast = tested on: MDA-MB-231 breast
# MDA-MB-435 = tested on: MDA-MB-435
# MDA-N = tested on: MDA-N
# MOLT-4 leukemia = tested on: MOLT-4 leukemia
# NCI-H226 lung = tested on: NCI-H226 lung
# NCI-H23 lung = tested on: NCI-H23 lung
# NCI-H460 lung = tested on: NCI-H460 lung
# NCI-H522 lung = tested on: NCI-H522 lung
# NCI/ADR-RES ovarian = tested on: NCI/ADR-RES ovarian
# OVCAR-3 ovarian = tested on: OVCAR-3 ovarian
# OVCAR-4 ovarian = tested on: OVCAR-4 ovarian
# OVCAR-5 ovarian = tested on: OVCAR-5 ovarian
# OVCAR-8 ovarian = tested on: OVCAR-8 ovarian
# PC-3 prostate = tested on: PC-3 prostate
# RPMI-8226 leukemia = tested on: RPMI-8226 leukemia
# RXF 393 renal = tested on: RXF 393 renal
# SF-268 CNS = tested on: SF-268 CNS
# SF-295 CNS = tested on: SF-295 CNS
# SF-539 CNS = tested on: SF-539 CNS
# SK-MEL-2 melanoma = tested on: SK-MEL-2 melanoma
# SK-MEL-28 melanoma = tested on: SK-MEL-28 melanoma
# SK-MEL-5 melanoma = tested on: SK-MEL-5 melanoma
# SK-OV-3 ovarian = tested on: SK-OV-3 ovarian
# SN12C renal = tested on: SN12C renal
# SNB-19 CNS = tested on: SNB-19 CNS
# SR leukemia = tested on: SR leukemia
# SW-620 colon = tested on: SW-620 colon
# T-47D breast = tested on: T-47D breast
# TK-10 renal = tested on: TK-10 renal
# U251 CNS = tested on: U251 CNS
# UACC-257 melanoma = tested on: UACC-257 melanoma
# UACC-62 melanoma = tested on: UACC-62 melanoma
# UO-31 renal = tested on: UO-31 renal
# SNB-75 CNS = tested on: SNB-75 CNS
smiles,measurement,setting,value
O=C1CC(NC(=O)C(F)(F)F)c2c1csc2Br (centres undefined),TGI,786-0 renal,83.1 µM
same,TGI,A498 renal,> 100 µM
same,TGI,A549 NSCLC,> 100 µM
same,TGI,ACHN renal,> 100 µM
same,TGI,BT-549 breast,> 100 µM
same,TGI,CAKI-1 renal,30.5 µM
same,TGI,CCRF-CEM leukemia,> 100 µM
same,TGI,COLO 205 colon,> 100 µM
same,TGI,DU-145 prostate,> 100 µM
same,TGI,EKVX NSCLC,38.2 µM
same,TGI,HCC-2998 colon,> 100 µM
same,TGI,HCT-116 colon,> 100 µM
same,TGI,HCT-15 colon,> 100 µM
same,TGI,HL-60(TB) leukemia,> 100 µM
same,TGI,HOP-62 NSCLC,> 100 µM
same,TGI,HOP-92 NSCLC,> 100 µM
same,TGI,HS 578T breast,> 100 µM
same,TGI,HT29 colon,> 100 µM
same,TGI,IGROV1 ovarian,> 100 µM
same,TGI,K-562 leukemia,> 100 µM
same,TGI,KM12 colon,> 100 µM
same,TGI,LOX IMVI melanoma,> 100 µM
same,TGI,M14 melanoma,> 100 µM
same,TGI,MALME-3M melanoma,> 100 µM
same,TGI,MCF7 breast,9.85 µM
same,TGI,MDA-MB-231 breast,> 100 µM
same,TGI,MDA-MB-435,> 100 µM
same,TGI,MDA-N,> 100 µM
same,TGI,MOLT-4 leukemia,> 100 µM
same,TGI,NCI-H226 lung,> 100 µM
same,TGI,NCI-H23 lung,> 100 µM
same,TGI,NCI-H460 lung,> 100 µM
same,TGI,NCI-H522 lung,> 100 µM
same,TGI,NCI/ADR-RES ovarian,> 100 µM
same,TGI,OVCAR-3 ovarian,> 100 µM
same,TGI,OVCAR-4 ovarian,> 100 µM
same,TGI,OVCAR-5 ovarian,6.03 µM
same,TGI,OVCAR-8 ovarian,> 100 µM
same,TGI,PC-3 prostate,> 100 µM
same,TGI,RPMI-8226 leukemia,> 100 µM
same,TGI,RXF 393 renal,47.9 µM
same,TGI,SF-268 CNS,62.3 µM
same,TGI,SF-295 CNS,> 100 µM
same,TGI,SF-539 CNS,> 100 µM
same,TGI,SK-MEL-2 melanoma,> 100 µM
same,TGI,SK-MEL-28 melanoma,> 100 µM
same,TGI,SK-MEL-5 melanoma,> 100 µM
same,TGI,SK-OV-3 ovarian,> 100 µM
same,TGI,SN12C renal,> 100 µM
same,TGI,SNB-19 CNS,> 100 µM
same,TGI,SR leukemia,> 100 µM
same,TGI,SW-620 colon,> 100 µM
same,TGI,T-47D breast,> 100 µM
same,TGI,TK-10 renal,> 100 µM
same,TGI,U251 CNS,> 100 µM
same,TGI,UACC-257 melanoma,> 100 µM
same,TGI,UACC-62 melanoma,> 100 µM
same,TGI,UO-31 renal,> 100 µM
COC(=O)C1=C(O)C(C(=O)OC)[C@]2(O)[C@H](C(=O)OC)[C@H]1C[C@@H](c1ccc(F)cc1)[C@H]2C(=O)OC (some centres undefined),TGI,786-0 renal,32 µM
same,TGI,A498 renal,35.1 µM
same,TGI,A549 NSCLC,> 100 µM
same,TGI,ACHN renal,43.5 µM
same,TGI,BT-549 breast,65.9 µM
same,TGI,CAKI-1 renal,> 100 µM
same,TGI,CCRF-CEM leukemia,70.7 µM
same,TGI,COLO 205 colon,29.6 µM
same,TGI,DU-145 prostate,67.6 µM
same,TGI,EKVX NSCLC,41.3 µM
same,TGI,HCC-2998 colon,28.7 µM
same,TGI,HCT-116 colon,20.3 µM
same,TGI,HCT-15 colon,40.8 µM
same,TGI,HL-60(TB) leukemia,7.24 µM
same,TGI,HOP-62 NSCLC,68.5 µM
same,TGI,HOP-92 NSCLC,> 100 µM
same,TGI,HS 578T breast,81.8 µM
same,TGI,HT29 colon,34 µM
same,TGI,IGROV1 ovarian,59.8 µM
same,TGI,K-562 leukemia,> 100 µM
same,TGI,KM12 colon,47.9 µM
same,TGI,LOX IMVI melanoma,42.1 µM
same,TGI,M14 melanoma,27.5 µM
same,TGI,MALME-3M melanoma,28 µM
same,TGI,MCF7 breast,> 100 µM
same,TGI,MDA-MB-231 breast,> 100 µM
same,TGI,MDA-MB-435,61 µM
same,TGI,MDA-N,17.1 µM
same,TGI,MOLT-4 leukemia,> 100 µM
same,TGI,NCI-H226 lung,49.9 µM
same,TGI,NCI-H23 lung,31 µM
same,TGI,NCI-H460 lung,63.1 µM
same,TGI,NCI/ADR-RES ovarian,36.8 µM
same,TGI,OVCAR-3 ovarian,35.5 µM
same,TGI,OVCAR-4 ovarian,> 100 µM
same,TGI,OVCAR-5 ovarian,37.5 µM
same,TGI,OVCAR-8 ovarian,86.8 µM
same,TGI,PC-3 prostate,33.2 µM
same,TGI,RPMI-8226 leukemia,69.7 µM
same,TGI,RXF 393 renal,26.5 µM
same,TGI,SF-268 CNS,95 µM
same,TGI,SF-295 CNS,43.9 µM
same,TGI,SF-539 CNS,41 µM
same,TGI,SK-MEL-2 melanoma,19 µM
same,TGI,SK-MEL-28 melanoma,27.4 µM
same,TGI,SK-MEL-5 melanoma,25.2 µM
same,TGI,SK-OV-3 ovarian,77.6 µM
same,TGI,SN12C renal,26.3 µM
same,TGI,SNB-19 CNS,> 100 µM
same,TGI,SNB-75 CNS,73.2 µM
same,TGI,SR leukemia,47.5 µM
same,TGI,SW-620 colon,53.4 µM
same,TGI,T-47D breast,> 100 µM
same,TGI,TK-10 renal,57.5 µM
same,TGI,U251 CNS,31.9 µM
same,TGI,UACC-257 melanoma,41.9 µM
same,TGI,UACC-62 melanoma,33.7 µM
same,TGI,UO-31 renal,29.1 µM
CC1(C)C2CCC3=C(CCC4(C)C5C[C@](C)(C(=O)O)CC[C@]5(C)CC[C@]34C)[C@@]2(C)CC[C@@H]1O (some centres undefined),TGI,786-0 renal,29.3 µM
same,TGI,A498 renal,44.7 µM
same,TGI,A549 NSCLC,26.6 µM
same,TGI,ACHN renal,29.9 µM
same,TGI,BT-549 breast,39.1 µM
same,TGI,CAKI-1 renal,37.7 µM
same,TGI,CCRF-CEM leukemia,36.3 µM
same,TGI,COLO 205 colon,> 100 µM
same,TGI,DU-145 prostate,34.5 µM
same,TGI,EKVX NSCLC,53 µM
same,TGI,HCC-2998 colon,> 100 µM
same,TGI,HCT-116 colon,30.2 µM
same,TGI,HCT-15 colon,37.7 µM
same,TGI,HL-60(TB) leukemia,50.4 µM
same,TGI,HOP-62 NSCLC,31.3 µM
same,TGI,HOP-92 NSCLC,38.7 µM
same,TGI,HS 578T breast,59.1 µM
same,TGI,HT29 colon,33 µM
same,TGI,IGROV1 ovarian,49.4 µM
same,TGI,K-562 leukemia,49 µM
same,TGI,KM12 colon,33.6 µM
same,TGI,LOX IMVI melanoma,31.2 µM
same,TGI,M14 melanoma,31.8 µM
same,TGI,MALME-3M melanoma,31.5 µM
same,TGI,MCF7 breast,40.4 µM
same,TGI,MDA-MB-231 breast,33.8 µM
same,TGI,MDA-MB-435,63 µM
same,TGI,MDA-N,37.8 µM
same,TGI,MOLT-4 leukemia,48.9 µM
same,TGI,NCI-H226 lung,67.9 µM
same,TGI,NCI-H23 lung,43.2 µM
same,TGI,NCI-H460 lung,30 µM
same,TGI,NCI-H522 lung,40.8 µM
same,TGI,NCI/ADR-RES ovarian,36 µM
same,TGI,OVCAR-3 ovarian,29.8 µM
same,TGI,OVCAR-4 ovarian,32.9 µM
same,TGI,OVCAR-5 ovarian,> 100 µM
same,TGI,PC-3 prostate,29.1 µM
same,TGI,RPMI-8226 leukemia,51.1 µM
same,TGI,RXF 393 renal,41.3 µM
same,TGI,SF-268 CNS,> 100 µM
same,TGI,SF-539 CNS,> 100 µM
same,TGI,SK-MEL-28 melanoma,33.7 µM
same,TGI,SK-MEL-5 melanoma,68.7 µM
same,TGI,SK-OV-3 ovarian,35.7 µM
same,TGI,SNB-75 CNS,34.4 µM
same,TGI,SR leukemia,> 100 µM
same,TGI,SW-620 colon,32.3 µM
same,TGI,T-47D breast,38.4 µM
same,TGI,TK-10 renal,32.2 µM
same,TGI,U251 CNS,27.1 µM
same,TGI,UACC-62 melanoma,37.6 µM
same,TGI,UO-31 renal,> 100 µM
